Measurements: patent publication US20110118314A1, “PIPERIDINE ANALOGS AS GLYCOGEN SYNTHASE ACTIVATORS” (priority 2009, published 2011)

System: glycogen synthase
Test: Glycogen Synthase (GS) Assay
Assay type: biochemical
Settings: for EC50: compound concentration needed to give 50% maximum activation; for GS SC200: compound concentration needed to stimulate 200% of the enzyme activity
Description: The following tests were carried out in order to determine the activity of the compounds of formula (I).
Twelve μL per well of substrate solution containing glycogen (4.32 mg/mL), 2.67 mM UDP-glucose, 21.6 mM phospho(enol)pyruvate and 2.7 mM NADH in 30 mM glycylglycine, pH 7.3 buffer was added into a polystyrene 384-well assay plate (BD Biosciences).
Compound solutions (8 μL/well) at various concentrations (0-300 μM) were added to the assay plate (columns 5-24). Compound solution contains 30 mM glycylglycine, pH 7.3, 40 mM KCl, 20 mM MgC12, 9.2% DMSO, with (columns 15-24) or without (columns 5-14) 20 mM glucose 6-phosphate.
Enzyme solution (12 μL/well) containing glycogen synthase (16.88 μg/mL), pyruvate kinase (0.27 mg/mL), lactate dehydrogenase (0.27 mg/mL) in 50 mM Tris-HCl, pH 8.0, 27 mM DTT and bovine serum albumin (BSA, 0.2 mg/mL) was added to the assay plate (columns 3-24). As a blank control, enzyme solution without glycogen synthase was added into the top half wells of columns 1-2. To the bottom half wells of columns 1-2 were added a known activator, glucose 6-phosphate (at final concentration 5 mM) in addition to the enzyme solution. The reaction mixture was incubated at room temperature. The assay plate was then read for absorbance at 340 nm on an Envision reader every 3 minutes up to a total of 15 minutes.
The enzyme activity (with or without compound) was calculated by the reaction rate and represented by the optical density change (SOD) per minute. Percent stimulation of glycogen synthase activity by a compound at various concentrations was calculated by the following formula: […]
where Rs is the reaction rate of the enzyme in the presence of compound and Rt is the reaction rate of the enzyme in the absence of compound.
SC200 is defined as the compound concentration that is needed to stimulate 200% of the enzyme activity. EC50 is defined as the compound concentration that is needed to give 50% maximum activation.
Compounds from Example 1 through Example 36 were assayed according to assay procedures described above and the results are listed in Table 1 below: […]

Compound	EC50	GS SC200
COc1cc(F)c(F)cc1-c1ccc(OCC2CCCN(C(=O)[C@@H](CC(=O)O)NC(C)=O)C2)cc1 (stereo partly drawn) [Example 11, (R)-3-Acetylamino-4-[3-(4′,5′-difluoro-2′-methoxy-biphenyl-4-yloxymethyl)-piperidin-1-yl]-4-oxo-butyric acid]	1930 nM	0.42 µM
COc1cc(F)c(F)cc1-c1ccc(OCC2CCN(C(=O)N(CCC(=O)O)Cc3ccccc3)C2)cc1 (stereo not shown) [Example 29, 3-{Benzyl-[3-(4′,5′-difluoro-2′-methoxy-biphenyl-4-yloxymethyl)-pyrrolidine-1-carbonyl]-amino}-propionic acid]	10400 nM	2.55 µM
COc1cc(F)c(F)cc1-c1ccc(OCC2CCCN(C(=O)C3CCS(=O)(=O)N3)C2)cc1 (stereo not shown) [Example 21, [3-(4′,5′-Difluoro-2′-methoxy-biphenyl-4-yloxymethyl)-piperidin-1-yl]-(1,1-dioxido-3-isothiazolidin-3-yl)-methanone]	7300 nM	
COc1cc(F)c(F)cc1-c1ccc(OC[C@H]2CCCN(C(=O)CC(=O)O)C2)cc1 (single isomer, unassigned) [Example 3]	350 nM	0.21 µM
CONC(=O)CC(=O)N1CCCC(COc2ccc(-c3cc(F)c(F)cc3OC)cc2)C1 (stereo not shown) [Example 5, 3-[3-(4′,5′-Difluoro-2′-methoxy-biphenyl-4-yloxymethyl)-piperidin-1-yl]-N-methoxy-3-oxo-propionamide]	6420 nM	0.99 µM
COc1cc(F)c(F)cc1-c1ccc(OC[C@@H]2CCCN(C(=O)CC(=O)O)C2)cc1 (single isomer, unassigned) [Example 4]	1740 nM	1.18 µM
COc1cc(F)c(F)cc1-c1ccc(OCC2CCCN(C(=O)C3CN(C(=O)OC(C)(C)C)CC3C(=O)O)C2)cc1 (stereo not shown) [Example 14, 4-[3-(4′,5′-Difluoro-2′-methoxy-biphenyl-4-yloxymethyl)-piperidine-1-carbonyl]-pyrrolidine-1,3-dicarboxylic acid 1-tert-butyl ester]	3720 nM	1.94 µM
COc1cc(F)c(F)cc1-c1ccc(OCC2CCCN(C(=O)[C@H](CC(=O)O)N(C)C(C)=O)C2)cc1 (stereo partly drawn) [Example 13, (S)-3-(Acetyl-methyl-amino)-4-[3-(4′,5′-difluoro-2′-methoxy-biphenyl-4-yloxymethyl)-piperidin-1-yl]-4-oxo-butyric acid]	12300 nM	2.12 µM
COc1cc(F)c(F)cc1-c1ccc(OCC2CCCN(C(=O)C3(C(=O)O)CC3)C2)cc1 (stereo not shown) [Example 1, 1-[3-(4′,5′-Difluoro-2′-methoxy-biphenyl-4-yloxymethyl)-piperidine-1-carbonyl]-cyclopropanecarboxylic acid]	3400 nM	1.1 µM
COc1cc(F)c(F)cc1-c1ccc(OCC2CCN(C(=O)N(C)CC(=O)O)C2)cc1 (stereo not shown) [Example 26, {[3-(4′,5′-Difluoro-2′-methoxy-biphenyl-4-yloxymethyl)-pyrrolidine-1-carbonyl]-methyl-amino}-acetic acid]	24700 nM	5.97 µM
COc1cc(F)c(F)cc1-c1ccc(OCC2CCCN(C(=O)[C@H](C)CC(=O)O)C2)cc1 (stereo partly drawn) [Example 8, (R)(+)-4-[3-(4′,5′-Difluoro-2′-methoxy-biphenyl-4-yloxymethyl)-piperidin-1-yl]-3-methyl-4-oxo-butyric acid]	8030 nM	2.35 µM
COc1cc(F)c(F)cc1-c1ccc(OCC2CCN(C(=O)N(CC(=O)NS(C)(=O)=O)Cc3ccccc3)C2)cc1 (stereo not shown) [Example 35, 3-(4′,5′-Difluoro-2′-methoxy-biphenyl-4-yloxymethyl)-pyrrolidine-1-carboxylic acid benzyl-(2-methanesulfonylamino-2-oxo-ethyl)-amide]	820 nM	0.28 µM
COc1cc(F)c(F)cc1-c1ccc(OC[C@@H]2CCCN(C(=O)N(C)CC(=O)NS(C)(=O)=O)C2)cc1 [Example 33, (R)-3-(4′,5′-Difluoro-2′-methoxy-biphenyl-4-yloxymethyl)-piperidine-1-carboxylic acid (2-methanesulfonylamino-2-oxo-ethyl)-methyl-amide]	2030 nM	0.41 µM
CCC(C(=O)O)C(=O)N1CCCC(COc2ccc(-c3cc(F)c(F)cc3OC)cc2)C1 (stereo not shown) [Example 18, 2-[3-(4′,5′-Difluoro-2′-methoxy-biphenyl-4-yloxymethyl)-piperidine-1-carbonyl]-butyric acid]	980 nM	
COc1cc(F)c(F)cc1-c1ccc(OC[C@H]2CCCN(C(=O)N(C)CC(=O)NS(C)(=O)=O)C2)cc1 [Example 32, (S)-3-(4′,5′-Difluoro-2′-methoxy-biphenyl-4-yloxymethyl)-piperidine-1-carboxylic acid (2-methanesulfonylamino-2-oxo-ethyl)-methyl-amide]	200 nM	0.06 µM

Further compounds by falling EC50, results first:

EC50	Compound	GS SC200
12700 nM	COc1cc(F)c(F)cc1-c1ccc(OCC2CCCN(C(=O)CC(N)=O)C2)cc1 (stereo not shown) [Example 20, 3-[3-(4′,5′-Difluoro-2′-methoxy-biphenyl-4-yloxymethyl)-piperidin-1-yl]-3-oxo-propionamide]	6.34 µM
6480 nM	COc1cc(F)c(F)cc1-c1ccc(OCC2CCCN(C(=O)C3CN(C(N)=O)CC3C(=O)O)C2)cc1 (stereo not shown) [Example 16, 1-Carbamoyl-4-[3-(4′,5′-difluoro-2′-methoxy-biphenyl-4-yloxymethyl)-piperidine-1-carbonyl]-pyrrolidine-3-carboxylic acid]	0.42 µM
6290 nM	COc1cc(F)c(F)cc1-c1ccc(OCC2CCCN(C(=O)N(CCC(=O)O)Cc3ccccc3)C2)cc1 (stereo not shown) [Example 28, 3-{Benzyl-[3-(4′,5′-difluoro-2′-methoxy-biphenyl-4-yloxymethyl)-piperidine-1-carbonyl]-amino}-propionic acid]	2.52 µM
6280 nM	COc1cc(F)c(F)cc1-c1ccc(OCC2CCCN(C(=O)[C@H]3CCC[C@@H]3C(=O)O)C2)cc1 (stereo in doubt) [Example 7, 2-[3-(4′,5′-Difluoro-2′-methoxy-biphenyl-4-yloxymethyl)-piperidine-1-carbonyl]-cyclopentanecarboxylic acid]	1.55 µM
5540 nM	COc1cc(F)c(F)cc1-c1ccc(OCC2CCCN(C(=O)CC(=O)NO)C2)cc1 (stereo not shown) [Example 6, 3-[3-(4′,5′-Difluoro-2′-methoxy-biphenyl-4-yloxymethyl)-piperidin-1-yl]-N-hydroxy-3-oxo-propionamide]	2.37 µM
2650 nM	COc1cc(F)c(F)cc1-c1ccc(OCC2CCCN(C(=O)N(CC(=O)O)Cc3ccccc3)C2)cc1 (stereo not shown) [Example 22, {Benzyl-[3-(4′,5′-difluoro-2′-methoxy-biphenyl-4-yloxymethyl)-piperidine-1-carbonyl]-amino}-acetic acid]	0.12 µM
1290 nM	COc1cc(F)c(F)cc1-c1ccc(OCC2CCCN(C(=O)N3CCC[C@H]3C(=O)O)C2)cc1 (stereo partly drawn) [Example 27, (S)-1-[3-(4′,5′-Difluoro-2′-methoxy-biphenyl-4-yloxymethyl)-piperidine-1-carbonyl]-pyrrolidine-2-carboxylic acid]	0.22 µM
680 nM	COc1cc(F)c(F)cc1-c1ccc(OCC2CCCN(C(=O)C(C)C(=O)O)C2)cc1 (stereo not shown) [Example 17, 3-[3-(4′,5′-Difluoro-2′-methoxy-biphenyl-4-yloxymethyl)-piperidin-1-yl]-2-methyl-3-oxo-propionic acid]	0.29 µM
520 nM	COc1cc(F)c(F)cc1-c1ccc(OCC2CCCN(C(=O)N(CC(=O)NS(C)(=O)=O)Cc3ccccc3)C2)cc1 (stereo not shown) [Example 34, 3-(4′,5′-Difluoro-2′-methoxy-biphenyl-4-yloxymethyl)-piperidine-1-carboxylic acid benzyl-(2-methanesulfonylamino-2-oxo-ethyl)-amide]	0.07 µM
510 nM	COc1cc(F)c(F)cc1-c1ccc(OCC2CCCN(C(=O)CC(=O)O)C2)cc1 (stereo not shown) [Example 2, 3-[3-(4′,5′-Difluoro-2′-methoxy-biphenyl-4-yloxymethyl)-piperidin-1-yl]-3-oxo-propionic acid]	0.05 µM
380 nM	COc1cc(F)c(F)cc1-c1ccc(OCC2CCCN(C(=O)N(C)CC(=O)NS(C)(=O)=O)C2)cc1 (stereo not shown) [Example 31, 3-(4′,5′-Difluoro-2′-methoxy-biphenyl-4-yloxymethyl)-piperidine-1-carboxylic acid (2-methanesulfonylamino-2-oxo-ethyl)-methyl-amide]	0.11 µM
290 nM	COc1cc(F)c(F)cc1-c1ccc(OCC2CCCN(C(=O)N(C)CC(=O)O)C2)cc1 (stereo not shown) [Example 25, {[3-(4′,5′-Difluoro-2′-methoxy-biphenyl-4-yloxymethyl)-piperidine-1-carbonyl]-methyl-amino}-acetic acid]	0.02 µM
